Measurements published in patent US8633245B2, “PAI-1 inhibitor” (Institute of Medicinal Molecular Design, Inc., priority 2008, dated 2014).
Like-named read-outs stand apart in the source and are kept apart here.

Biological target: T1, recombinant human PAI-1 (Homo sapiens, UniProt P05121)
T1 construct: purchased Molecular Innovations, Inc
Assay: Test Example 2: human PAI-1 inhibitory activity (tPA fluorogenic substrate, pH 7.4 HEPES buffer)
Assay type: biochemical
Description: 0.1 M HEPES, 0.1 M NaCl. 1 mM EDTA. 0.1% Polyethylene glycol 8,000 (Hampton Research Corporation),
2 mM Dimethyldecylphoshine oxide [Apo-10] (Fluka Corporation)

[1] = human PAI-1, compound concentration 1 μM
[2] = human PAI-1, compound concentration 3 μM
[3] = human PAI-1, compound concentration 10 μM
[4] = human PAI-1, compound concentration 25 μM
[5] = human PAI-1, calculated from the inhibition rates
[6] = human PAI-1, compound concentration 0.1 μM
[7] = human PAI-1, compound concentration 0.3 μM

T1 sequence (P05121 24-402): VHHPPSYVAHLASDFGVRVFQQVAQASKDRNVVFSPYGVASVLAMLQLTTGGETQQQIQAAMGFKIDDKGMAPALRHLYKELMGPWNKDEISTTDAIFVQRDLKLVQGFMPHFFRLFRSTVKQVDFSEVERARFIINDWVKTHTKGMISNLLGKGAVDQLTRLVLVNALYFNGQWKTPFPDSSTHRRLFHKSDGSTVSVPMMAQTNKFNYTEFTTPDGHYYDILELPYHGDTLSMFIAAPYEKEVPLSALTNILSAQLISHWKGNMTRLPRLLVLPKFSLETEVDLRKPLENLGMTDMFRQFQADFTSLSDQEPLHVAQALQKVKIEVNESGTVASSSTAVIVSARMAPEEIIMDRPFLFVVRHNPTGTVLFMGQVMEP

Row | SMILES | Inhibition Rate of PAI-1 Activity (%) [1] [%] | Inhibition Rate of PAI-1 Activity (%) [2] [%] | Inhibition Rate of PAI-1 Activity (%) [6] [%] | Inhibition Rate of PAI-1 Activity (%) [7] [%] | further results
1 | CC(C)(C)c1ccc(-c2ccc(CN(C(=O)C(=O)O)c3ccc(OC(F)(F)F)cc3)cc2)cc1 [Compound 615] | 43 | 98 | – | – | Inhibition Rate of PAI-1 Activity (%) [3]: >99%; Inhibition Rate of PAI-1 Activity (%) [4]: 95%
2 | CCCCCCCOc1ccc(-c2ccc(OC(F)(F)F)cc2)cc1N(CCCCc1ccccc1)C(=O)C(=O)O [Compound 352] | – | – | – | – | IC50 [5]: 0.74 µM
3 | CCCCCOc1ccc(-c2cccc(C(F)(F)F)c2)cc1N(CCCCc1ccccc1)C(=O)C(=O)O [Compound 378] | – | – | – | – | IC50: 0.62 µM
4 | CC(C)(C)c1ccc(Oc2cc(-c3ccc(Cl)cc3)ccc2OCC(=O)O)cc1 [Compound 457] | 63 | >99 | 21 | 18 | –
5 | CCCN(CC(=O)O)c1cc(-c2ccc(OC(F)(F)F)cc2)ccc1Oc1ccc(C(C)(C)C)cc1 [Compound 435] | 81 | 98 | 12 | 29 | –
6 | O=C(O)COc1cc(Oc2ccc(OC(F)(F)F)cc2)ccc1OCCCCc1ccccc1 [Compound 452] | 15 | 94 | 9 | 8 | –
7 | CC(C)c1ccccc1Oc1cc(-c2ccc(OC(F)(F)F)cc2)ccc1CCC(=O)O [Compound 491] | 66 | >99 | 6 | 10 | –
8 | CCCCOc1ccc(Oc2cc(-c3ccc(OC(F)(F)F)cc3)ccc2OCC(=O)O)cc1 [Compound 523] | 78 | >99 | 11 | 15 | –
9 | CC(C)(C)c1ccc(Oc2ccc(-c3cccc(OC(F)(F)F)c3)cc2OCC(=O)O)cc1 [Compound 329] | – | – | – | – | IC50 [5]: 1.72 µM
10 | CCC(CC)Oc1ccc(-c2ccc(OC(F)(F)F)cc2)cc1N(CCCCc1ccccc1)C(=O)C(=O)O [Compound 369] | – | – | – | – | IC50: 0.69 µM
11 | CC(C)(C)c1cccc(Oc2ccc(-c3ccc(OC(F)(F)F)cc3)cc2CCC(=O)O)c1 [Compound 438] | 50 | >99 | 13 | 11 | –
12 | CCCCCCCCCCOc1ccc(-c2ccc(OC(F)(F)F)cc2)cc1N(CCCCc1ccccc1)C(=O)C(=O)O [Compound 365] | – | – | – | – | IC50: 0.11 µM
13 | O=C(O)/C=C/c1ccc(-c2ccc(OC(F)(F)F)cc2)cc1OCCCSc1ccccc1 [Compound 489] | 69 | >99 | 12 | 14 | –
14 | CC(C)(C)c1ccc(Sc2cc(-c3ccc(OC(F)(F)F)cc3)ccc2C(=O)O)cc1 [Compound 547] | 97 | >99 | 4 | 17 | –
15 | O=C(O)CCc1ccc(-c2ccc(OC(F)(F)F)cc2)cc1Oc1ccc2ccccc2c1 [Compound 476] | 65 | >99 | 0 | 3 | –
16 | CN(C(=O)c1ccc(OC(F)(F)F)cc1)c1ccc(OCc2ccc(C(C)(C)C)cc2)c(CCC(=O)O)c1 [Compound 416] | 26 | 54 | – | – | Inhibition Rate of PAI-1 Activity (%) [3]: >99%; Inhibition Rate of PAI-1 Activity (%) [4]: >99%
17 | CC(C)(C)c1ccc(Oc2ccc(-c3ccc(OC(F)(F)F)cc3)cc2N(CCCCc2ccccc2)C(=O)C(=O)O)cc1 [Compound 636] | 72 | 81 | 2 | 21 | –
18 | CCCCCCOc1cc(-c2ccc(OC(F)(F)F)cc2)ccc1OC(CCCCCC)C(=O)O (stereo not drawn) [Compound 430] | 97 | >99 | 1 | 15 | –
19 | CC(C)c1ccc(Oc2cc(-c3ccc(OC(F)(F)F)cc3)ccc2OCC(=O)O)cc1 [Compound 333] | – | – | – | – | IC50 [5]: 1.72 µM
20 | CCCCC(Oc1cc(Oc2ccc(OC(F)(F)F)cc2)ccc1OCCCCc1ccccc1)C(=O)O (stereo not drawn) [Compound 309] | – | – | – | – | IC50 [5]: 0.66 µM
21 | CCCCC(Oc1cc(-c2cccc(C)c2)ccc1Oc1ccc(C(C)(C)C)cc1)C(=O)O (stereo not drawn) [Compound 317] | – | – | – | – | IC50 [5]: 0.65 µM

Row | SMILES | Inhibition Rate of PAI-1 Activity (%) [1] [%] | Inhibition Rate of PAI-1 Activity (%) [2] [%] | Inhibition Rate of PAI-1 Activity (%) [6] [%] | Inhibition Rate of PAI-1 Activity (%) [7] [%] | further results
22 | CC(C)c1ccc(Oc2cc(-c3ccc(OC(F)(F)F)cc3)ccc2/C=C/C(=O)O)cc1 [Compound 509] | 96 | >99 | 1 | 22 | –
23 | CC(C)(C)c1ccc(COc2ccc(NS(=O)(=O)c3ccc(OC(F)(F)F)cc3)cc2CCC(=O)O)cc1 [Compound 415] | 41 | 98 | – | – | Inhibition Rate of PAI-1 Activity (%) [3]: >99%; Inhibition Rate of PAI-1 Activity (%) [4]: >99%
24 | CC(C)(C)c1ccc(Oc2cc(-c3ccc(C(C)(C)C)cc3)ccc2/C=C/C(=O)O)cc1 [Compound 495] | 98 | >99 | 8 | 64 | –
25 | CC(C)(C)c1ccc(Oc2cc(-c3cc(Cl)ccc3Cl)ccc2/C=C/C(=O)O)cc1 [Compound 483] | 76 | >99 | 0 | 8 | –
26 | CCCCCOc1cc(N(CCCCc2ccccc2)C(=O)C(=O)O)ccc1-c1ccc(OC(F)(F)F)cc1 [Compound 654] | >99 | >99 | 4 | 19 | –
27 | O=C(O)/C=C/c1ccc(-c2ccc(OC(F)(F)F)cc2)cc1OC(c1ccccc1)c1ccccc1 [Compound 506] | 78 | >99 | 2 | 9 | –
28 | CC(C)(C)C1CCC(CN(C(=O)C(=O)O)c2ccc(-c3ccc(OC(F)(F)F)cc3)cc2)CC1 (stereo not drawn) [Compound 680] | – | >99 | – | 9 | Inhibition Rate of PAI-1 Activity (%) (human PAI-1, compound concentration 0.1 μM, 0.1 µM): 7%; Inhibition Rate of PAI-1 Activity (%) (human PAI-1, compound concentration 1 μM, 1 µM): 77%
29 | Cc1ccc(-c2ccc(OCC(=O)O)c(Oc3ccc(C(C)(C)C)cc3)c2)cc1 [Compound 444] | 11 | 96 | 0 | 0 | –
30 | CC(C)(C)c1ccc(Oc2ccc(-c3ccc(OC(F)(F)F)cc3)cc2OCC(=O)O)cc1 [Compound 328] | 30 | >99 | 0 | 14 | IC50 [5]: 1.46 µM
31 | O=C(O)C(=O)N(CCCCc1ccccc1)c1cc(-c2ccc(OC(F)(F)F)cc2)ccc1OCCCCc1ccccc1 [Compound 354] | – | – | – | – | IC50 [5]: 0.56 µM
32 | CCCCOc1ccc(-c2ccc(OC(F)(F)F)cc2)cc1/C=C/C(=O)O [Compound 405] | 14 | 63 | – | – | Inhibition Rate of PAI-1 Activity (%) [3]: >99%; Inhibition Rate of PAI-1 Activity (%) [4]: 95%
33 | CC(C)(C)c1ccc(Sc2cc(-c3ccc(OC(F)(F)F)cc3)ccc2/C=C/C(=O)O)cc1 [Compound 462] | 97 | 95 | 37 | 94 | –
34 | CCCCc1ccc(-c2ccc(OCC(=O)O)c(Oc3ccc(C(C)(C)C)cc3)c2)cc1 [Compound 443] | 76 | >99 | 7 | 8 | –
35 | CC(C)(C)OCCOc1ccc(-c2ccc(OC(F)(F)F)cc2)cc1N(CCCCc1ccccc1)C(=O)C(=O)O [Compound 351] | – | – | – | – | IC50 [5]: 1.95 µM
36 | CCCCCCC(Oc1cc(-c2ccc(OC(F)(F)F)cc2)ccc1Oc1ccc(OC(F)(F)F)cc1)C(=O)O (stereo not drawn) [Compound 326] | – | – | – | – | IC50 [5]: 0.33 µM
37 | CC(C)(C)c1ccc(CCc2cc(-c3ccc(OC(F)(F)F)cc3)ccc2OCC(=O)O)cc1 [Compound 551] | 92 | >99 | 0 | 4 | –
38 | CC(C)(C)c1ccc(CN(C(=O)C(=O)O)c2ccc(N3CCN(c4ccccc4)CC3)cc2)cc1 [Compound 627] | 0 | 14 | – | – | Inhibition Rate of PAI-1 Activity (%) [3]: 57%; Inhibition Rate of PAI-1 Activity (%) [4]: >99%
39 | O=C(O)/C=C/c1ccc(-c2ccc(OC(F)(F)F)cc2)cc1Oc1ccc(OC(F)(F)F)cc1 [Compound 477] | 60 | >99 | 7 | 21 | –
40 | O=C(O)C(=O)N(CCCCc1ccccc1)c1ccc(N2CCSCC2)c(-c2ccc(OC(F)(F)F)cc2)c1 [Compound 675] | 95 | >99 | 10 | 14 | –
41 | CCC(C)(C)c1ccc(Oc2cc(-c3ccc(OC(F)(F)F)cc3)ccc2CCC(=O)O)cc1 [Compound 475] | 94 | >99 | 4 | 27 | –
